Literature values, collected in patent US6953790B2, “CGRP receptor antagonists” (Merck & Co., Inc., priority 2003, dated 2005).
No end group written: not given here.

Key:
[1] = test system: facial blood flow; conditions: marmoset, electrical stimulation of the trigeminal ganglion (Doods et al. 2000)
[2] = target: T1, CGRP receptor (Homo sapiens, UniProt O60894+Q16602); conditions: clinical trials (Olesen et al. 2004)
T1 construct: host or cells: human migraine patients (in vivo)

[3] = test system: middle meningeal artery; conditions: rats, electrical stimulation of the dura mater, prior administration (Williamson et al. 1997)
[4] = test system: facial blood flow; conditions: rat, trigeminal ganglion stimulation (Escott et al. 1995)

T1 sequence (Q16602 23-461): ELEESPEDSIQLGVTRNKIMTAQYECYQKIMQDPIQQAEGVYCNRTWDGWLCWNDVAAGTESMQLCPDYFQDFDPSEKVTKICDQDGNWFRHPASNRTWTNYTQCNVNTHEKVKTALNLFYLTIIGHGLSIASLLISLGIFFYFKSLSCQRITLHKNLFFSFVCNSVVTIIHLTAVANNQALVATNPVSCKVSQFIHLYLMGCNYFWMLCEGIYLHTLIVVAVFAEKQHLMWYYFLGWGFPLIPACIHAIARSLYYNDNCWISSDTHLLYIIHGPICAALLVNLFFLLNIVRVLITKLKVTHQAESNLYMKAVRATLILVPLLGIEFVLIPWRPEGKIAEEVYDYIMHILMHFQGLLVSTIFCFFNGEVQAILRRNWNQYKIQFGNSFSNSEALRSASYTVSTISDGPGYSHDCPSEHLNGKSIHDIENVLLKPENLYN
T1 sequence (O60894 27-148): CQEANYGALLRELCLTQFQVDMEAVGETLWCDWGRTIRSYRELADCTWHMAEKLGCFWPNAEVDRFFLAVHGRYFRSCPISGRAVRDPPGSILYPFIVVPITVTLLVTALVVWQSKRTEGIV

Molecule	effect on increase in facial blood flow [1]	efficacy in acute attacks of migraine [2]	effect on increase in diameter of the middle meningeal artery [3]	effect on increased facial blood flow [4]
NCCCC[C@H](NC(=O)[C@@H](Cc1cc(Br)c(O)c(Br)c1)NC(=O)N1CCC(N2Cc3ccccc3NC2=O)CC1)C(=O)N1CCN(c2ccncc2)CC1 [BIBN4096BS]	blocked	effective in treating acute attacks of migraine	–	–
CGRP(8-37): "a peptide CGRP antagonist" (VTHRLAGLLSRSGGVVKNNFVPTNVGSKAF; ends and bridges not checked; UniProt P06881 90-119, looked up, fragment)	–	–	blocked	inhibited
